Assay results published in patent US6355799B1, “Substituted benzene compounds, process for their preparation, and herbicidal and defoliant compositions containing them” (ISK Americas Incorporated, priority 1997, dated 2002).

Key:
Format in all cases: in vivo
[1] = test system: redroot pigweed (Amaranthus retroflexus, AMARE); experiment: Pre-emerge test, greenhouse herbicide activity screening; settings: Amaranthus retroflexus, pre-emergence, 336 h, pre-emerge, phytotoxicity rating 0-100 at 14 days after application, read-out: Pre-emerge Herbicidal Activity AMARE; for pest or weed control at 63 g/ha: rate 63 g ai/ha; for pest or weed control at 250 g/ha: rate 250 g ai/ha
Outline: (§1)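 Rating: 0–100 visual injury, 14 DAA. Application: acetone, 187 l/ha, 15–1000 g ai/ha, flat-fan track sprayer with nozzle 40–45 cm above soil or canopy. Post-emerge runs used 0.25% v/v surfactant on 2–3 leaf plants.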

[2] = test system: barnyardgrass (Echinochloa crus-galli, ECHCG); experiment: as above; settings: Echinochloa crus-galli, pre-emergence, 336 h, pre-emerge, phytotoxicity rating 0-100 at 14 days after application, read-out: Pre-emerge Herbicidal Activity ECHCG; for pest or weed control at 63 g/ha: rate 63 g ai/ha; for pest or weed control at 250 g/ha: rate 250 g ai/ha
Outline: as §1

[3] = test system: green foxtail (Setaria viridis, SETVI); experiment: as above; settings: Setaria viridis, pre-emergence, 336 h, pre-emerge, phytotoxicity rating 0-100 at 14 days after application, read-out: Pre-emerge Herbicidal Activity SETVI; for pest or weed control at 63 g/ha: rate 63 g ai/ha; for pest or weed control at 250 g/ha: rate 250 g ai/ha
Outline: as §1

[4] = test system: ivyleaf morningglory (Ipomoea hederacea, IPOHE); experiment: as above; settings: Ipomoea, pre-emergence, 336 h, pre-emerge, phytotoxicity rating 0-100 at 14 days after application, read-out: Pre-emerge Herbicidal Activity IPOHE; for pest or weed control at 63 g/ha: rate 63 g ai/ha; for pest or weed control at 250 g/ha: rate 250 g ai/ha
Outline: as §1

[5] = test system: johnsongrass (Sorghum halepense, SORHA); experiment: as above; settings: Sorghum halepense, pre-emergence, 336 h, pre-emerge, phytotoxicity rating 0-100 at 14 days after application, read-out: Pre-emerge Herbicidal Activity SORHA; for pest or weed control at 63 g/ha: rate 63 g ai/ha; for pest or weed control at 250 g/ha: rate 250 g ai/ha
Outline: as §1

[6] = test system: lambsquarters (Chenopodium album, CHEAL); experiment: as above; settings: Chenopodium album, pre-emergence, 336 h, pre-emerge, phytotoxicity rating 0-100 at 14 days after application, read-out: Pre-emerge Herbicidal Activity CHEAL; for pest or weed control at 63 g/ha: rate 63 g ai/ha; for pest or weed control at 250 g/ha: rate 250 g ai/ha
Outline: as §1

[7] = test system: large crabgrass (Digitaria sanguinalis, DIGSA); experiment: as above; settings: Digitaria sanguinalis, pre-emergence, 336 h, pre-emerge, phytotoxicity rating 0-100 at 14 days after application, read-out: Pre-emerge Herbicidal Activity DIGSA; for pest or weed control at 63 g/ha: rate 63 g ai/ha; for pest or weed control at 250 g/ha: rate 250 g ai/ha
Outline: as §1

[8] = test system: sicklepod (Cassia obtusifolia, CASOB); experiment: as above; settings: Senna obtusifolia, pre-emergence, 336 h, pre-emerge, phytotoxicity rating 0-100 at 14 days after application, read-out: Pre-emerge Herbicidal Activity CASOB; for pest or weed control at 63 g/ha: rate 63 g ai/ha; for pest or weed control at 250 g/ha: rate 250 g ai/ha
Outline: as §1

[9] = test system: velvetleaf (Abutilon theophrasti, ABUTH); experiment: as above; settings: Abutilon theophrasti, pre-emergence, 336 h, pre-emerge, phytotoxicity rating 0-100 at 14 days after application, read-out: Pre-emerge Herbicidal Activity ABUTH; for pest or weed control at 63 g/ha: rate 63 g ai/ha; for pest or weed control at 250 g/ha: rate 250 g ai/ha
Outline: as §1

[10] = test system: green foxtail (Setaria viridis, SETVI); experiment: Post-emerge test, greenhouse herbicide activity screening; settings: Setaria viridis, post-emergence, 336 h, post-emerge, phytotoxicity rating 0-100 at 14 days after application, read-out: Post-emerge Herbicidal Activity SETVI; for pest or weed control at 63 g/ha: 63 g ai/ha; for pest or weed control at 250 g/ha: 250 g ai/ha
Outline: (§2)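 Compounds in acetone were track-sprayed at 15–1000 g ai/ha: pre-emergence onto soil sown the previous day, then top-watered to incorporate and later bottom-watered; post-emergence onto 2–3 leaf plants with 0.25% v/v surfactant, bottom-watered only. Ratings on a 0–100 phytotoxicity scale were taken at day 14.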

[11] = test system: ivyleaf morningglory (Ipomoea hederacea, IPOHE); experiment: as above; settings: Ipomoea, post-emergence, 336 h, post-emerge, phytotoxicity rating 0-100 at 14 days after application, read-out: Post-emerge Herbicidal Activity IPOHE; for pest or weed control at 63 g/ha: 63 g ai/ha; for pest or weed control at 250 g/ha: 250 g ai/ha
Outline: as §2

[12] = test system: johnsongrass (Sorghum halepense, SORHA); experiment: as above; settings: Sorghum halepense, post-emergence, 336 h, post-emerge, phytotoxicity rating 0-100 at 14 days after application, read-out: Post-emerge Herbicidal Activity SORHA; for pest or weed control at 63 g/ha: 63 g ai/ha; for pest or weed control at 250 g/ha: 250 g ai/ha
Outline: as §2

[13] = test system: large crabgrass (Digitaria sanguinalis, DIGSA); experiment: as above; settings: Digitaria sanguinalis, post-emergence, 336 h, post-emerge, phytotoxicity rating 0-100 at 14 days after application, read-out: Post-emerge Herbicidal Activity DIGSA; for pest or weed control at 63 g/ha: 63 g ai/ha; for pest or weed control at 250 g/ha: 250 g ai/ha
Outline: as §2

[14] = test system: sicklepod (Cassia obtusifolia, CASOB); experiment: as above; settings: Senna obtusifolia, post-emergence, 336 h, post-emerge, phytotoxicity rating 0-100 at 14 days after application, read-out: Post-emerge Herbicidal Activity CASOB; for pest or weed control at 63 g/ha: 63 g ai/ha; for pest or weed control at 250 g/ha: 250 g ai/ha
Outline: as §2

Structure (SMILES)	pest or weed control at 63 g/ha [1] [%]	pest or weed control at 250 g/ha [1] [%]	pest or weed control at 63 g/ha [2] [%]	pest or weed control at 250 g/ha [2] [%]	pest or weed control at 63 g/ha [3] [%]	pest or weed control at 250 g/ha [3] [%]	pest or weed control at 63 g/ha [4] [%]	pest or weed control at 250 g/ha [4] [%]	pest or weed control at 63 g/ha [5] [%]	pest or weed control at 250 g/ha [5] [%]	pest or weed control at 63 g/ha [6] [%]	pest or weed control at 250 g/ha [6] [%]	pest or weed control at 63 g/ha [7] [%]	pest or weed control at 250 g/ha [7] [%]	pest or weed control at 63 g/ha [8] [%]	pest or weed control at 250 g/ha [8] [%]	pest or weed control at 63 g/ha [9] [%]	pest or weed control at 250 g/ha [9] [%]	pest or weed control at 63 g/ha [10] [%]	pest or weed control at 250 g/ha [10] [%]	other results
CC(C)Oc1c(Cl)cc(F)c(N2C(=O)C3=C(CCCC3)C2=O)c1N [Compound 8-4, N-(2-amino-4-chloro-6-fluoro-3-isopropyloxyphenyl)tetrahydrophthalimide]	60	100	0	0	30	70	0	0	0	20	80	99	20	20	0	0	0	90	0	30	pest or weed control at 63 g/ha [11]: 0%; pest or weed control at 250 g/ha [11]: 20%; pest or weed control at 63 g/ha [12]: 0%; pest or weed control at 250 g/ha [12]: 0%; pest or weed control at 63 g/ha [13]: 0%; pest or weed control at 250 g/ha [13]: 0%; pest or weed control at 63 g/ha [14]: 0%; pest or weed control at 250 g/ha [14]: 10%
CC(C)Oc1c(Cl)cc(F)c(-n2nnn(CCCF)c2=O)c1N [Compound 5-18, 1-(2-amino-4-chloro-6-fluoro-3-isopropyloxyphenyl)-4-(3fluoropropyl)-1,4-dihydro-5-oxo-5H-tetrazole]	30	0	0	0	95	90	0	0	40	30	70	95	30	20	0	10	40	70	0	0	pest or weed control at 63 g/ha [11]: 0%; pest or weed control at 250 g/ha [11]: 0%; pest or weed control at 63 g/ha [12]: 0%; pest or weed control at 250 g/ha [12]: 0%; pest or weed control at 63 g/ha [13]: 0%; pest or weed control at 250 g/ha [13]: 0%; pest or weed control at 63 g/ha [14]: 0%; pest or weed control at 250 g/ha [14]: 0%
Cc1nn(-c2c(Cl)cc(Cl)c(N)c2N)c(=O)n1C(F)F [Compound 6-20]	10	0	0	0	0	0	0	0	0	0	50	30	0	0	0	0	0	0	0	0	pest or weed control at 63 g/ha [11]: 0%; pest or weed control at 250 g/ha [11]: 40%; pest or weed control at 63 g/ha [12]: 0%; pest or weed control at 250 g/ha [12]: 0%; pest or weed control at 63 g/ha [13]: 0%; pest or weed control at 250 g/ha [13]: 0%; pest or weed control at 63 g/ha [14]: 0%; pest or weed control at 250 g/ha [14]: 0%
